The supplement of paper PMC10307832

Experiments:
Test in all cases: relative viability (nuclei count vs DMSO), 5 days (fraction); higher = more cells survive
[1] = test system: BEN
Summary of the method: (§1)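 Relative viability is defined as nuclei in treated wells over nuclei in vehicle wells. Duplicate plates were run and medians reported. Lung cancer cell lines in 1536-well plates were dosed by pin tool one day after seeding, with one drug or with a fixed anchor-drug dose plus five library-drug doses (not always all listed) in √10 steps, and nuclei were counted after 5 days.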

[2] = test system: ChaGo-K-1
Summary of the method: as §1

[3] = test system: HCC-15
Summary of the method: as §1

[4] = test system: HCC-78
Summary of the method: as §1

[5] = test system: LC-2-ad
Summary of the method: as §1

[6] = test system: LCLC-97TM1
Summary of the method: as §1

[7] = test system: LK-2
Summary of the method: as §1

[8] = test system: LU99A
Summary of the method: as §1

[9] = test system: LXF-289
Summary of the method: as §1

[10] = test system: NCI-H1651
Summary of the method: as §1

[11] = test system: NCI-H1666
Summary of the method: as §1

[12] = test system: NCI-H1944
Summary of the method: as §1

[13] = test system: NCI-H2087
Summary of the method: as §1

[14] = test system: NCI-H2342
Summary of the method: as §1

[15] = test system: NCI-H322M
Summary of the method: as §1

[16] = test system: NCI-H358
Summary of the method: as §1

[17] = test system: NCI-H596
Summary of the method: as §1

[18] = test system: NCI-H650
Summary of the method: as §1

[19] = test system: NCI-H661
Summary of the method: as §1

[20] = test system: NCI-H838
Summary of the method: as §1

[21] = test system: PC-3 [JPC-3]
Summary of the method: as §1

[22] = test system: SK-MES-1
Summary of the method: as §1

[23] = test system: UMC-11
Summary of the method: as §1

Q: What does the source list for `O=C(O)c1ccc(-c2c[nH]c3ncc(-c4ccccc4)cc23)cc1C1CCCC1` + CC(=O)Nc1cccc(-n2c(=O)n(C3CC3)c(=O)c3c(Nc4ccc(I)cc4F)n(C)c(=O)c(C)c32)c1 [Trametinib] (partner 0.02 µM)?
A: relative viability ([1]; first compound 0.04 µM): 1.19; relative viability ([1]; first compound 0.1265 µM): 1.05; relative viability ([1]; first compound 0.4 µM): 1.08; relative viability ([1]; first compound 1.265 µM): 0.957; relative viability ([2]; first compound 0.04 µM): 1.15; relative viability ([2]; first compound 0.1265 µM): 0.895; relative viability ([2]; first compound 0.4 µM): 0.89; relative viability ([2]; first compound 1.265 µM): 0.857; relative viability ([3]; first compound 0.04 µM): 0.396; relative viability ([3]; first compound 0.1265 µM): 0.395; relative viability ([3]; first compound 0.4 µM): 0.409; relative viability ([3]; first compound 1.265 µM): 0.351; relative viability ([4]; first compound 0.1265 µM): 0.937; relative viability ([4]; first compound 0.4 µM): 0.945; relative viability ([4]; first compound 1.265 µM): 0.829; relative viability ([5]; first compound 0.04 µM): 0.876; relative viability ([5]; first compound 0.1265 µM): 0.921; relative viability ([5]; first compound 0.4 µM): 0.897; relative viability ([5]; first compound 1.265 µM): 0.769; relative viability ([6]; first compound 0.04 µM): 0.202; relative viability ([6]; first compound 0.1265 µM): 0.204; relative viability ([6]; first compound 0.4 µM): 0.173; relative viability ([6]; first compound 1.265 µM): 0.207; relative viability ([7]; first compound 0.04 µM): 0.73; relative viability ([7]; first compound 0.1265 µM): 0.816; relative viability ([7]; first compound 0.4 µM): 0.599; relative viability ([7]; first compound 1.265 µM): 0.781; relative viability ([8]; first compound 0.04 µM): 0.575; relative viability ([8]; first compound 0.1265 µM): 0.516; relative viability ([8]; first compound 0.4 µM): 0.52; relative viability ([8]; first compound 1.265 µM): 0.51; relative viability ([9]; first compound 0.04 µM): 0.625; relative viability ([9]; first compound 0.1265 µM): 0.685; relative viability ([9]; first compound 0.4 µM): 0.666; relative viability ([9]; first compound 1.265 µM): 0.535; relative viability ([10]; first compound 0.04 µM): 0.822; relative viability ([10]; first compound 0.1265 µM): 0.853; relative viability ([10]; first compound 0.4 µM): 0.829; relative viability ([10]; first compound 1.265 µM): 0.714; relative viability ([11]; first compound 0.04 µM): 0.916; relative viability ([11]; first compound 0.1265 µM): 0.809; relative viability ([11]; first compound 0.4 µM): 0.84; relative viability ([11]; first compound 1.265 µM): 0.598; relative viability ([12]; first compound 0.04 µM): 0.405; relative viability ([12]; first compound 0.1265 µM): 0.437; relative viability ([12]; first compound 0.4 µM): 0.487; relative viability ([12]; first compound 1.265 µM): 0.37; relative viability ([13]; first compound 0.04 µM): 0.204; relative viability ([13]; first compound 0.1265 µM): 0.209; relative viability ([13]; first compound 0.4 µM): 0.179; relative viability ([13]; first compound 1.265 µM): 0.205; relative viability ([14]; first compound 0.04 µM): 0.768; relative viability ([14]; first compound 0.1265 µM): 0.839; relative viability ([14]; first compound 0.4 µM): 0.906; relative viability ([14]; first compound 1.265 µM): 0.711; relative viability ([15]; first compound 0.04 µM): 0.482; relative viability ([15]; first compound 0.1265 µM): 0.633; relative viability ([15]; first compound 0.4 µM): 0.524; relative viability ([15]; first compound 1.265 µM): 0.493; relative viability ([16]; first compound 0.04 µM): 0.146; relative viability ([16]; first compound 0.1265 µM): 0.129; relative viability ([16]; first compound 0.4 µM): 0.138; relative viability ([16]; first compound 1.265 µM): 0.0857; relative viability ([17]; first compound 0.04 µM): 0.726; relative viability ([17]; first compound 0.1265 µM): 0.815; relative viability ([17]; first compound 0.4 µM): 0.777; relative viability ([17]; first compound 1.265 µM): 0.802; relative viability ([18]; first compound 0.04 µM): 0.935; relative viability ([18]; first compound 0.1265 µM): 0.943; relative viability ([18]; first compound 0.4 µM): 0.879; relative viability ([18]; first compound 1.265 µM): 0.579; relative viability ([19]; first compound 0.04 µM): 0.585; relative viability ([19]; first compound 0.1265 µM): 0.628; relative viability ([19]; first compound 0.4 µM): 0.585; relative viability ([19]; first compound 1.265 µM): 0.59; relative viability ([20]; first compound 0.04 µM): 0.563; relative viability ([20]; first compound 0.1265 µM): 0.561; relative viability ([20]; first compound 0.4 µM): 0.569; relative viability ([20]; first compound 1.265 µM): 0.472; relative viability ([21]; first compound 0.04 µM): 0.656; relative viability ([21]; first compound 0.1265 µM): 0.756; relative viability ([21]; first compound 0.4 µM): 0.752; relative viability ([21]; first compound 1.265 µM): 0.647; relative viability ([22]; first compound 0.04 µM): 0.57; relative viability ([22]; first compound 0.1265 µM): 0.538; relative viability ([22]; first compound 0.4 µM): 0.521; relative viability ([22]; first compound 1.265 µM): 0.524; relative viability ([23]; first compound 0.04 µM): 0.702; relative viability ([23]; first compound 0.1265 µM): 0.719; relative viability ([23]; first compound 0.4 µM): 0.711; relative viability ([23]; first compound 1.265 µM): 0.641
